In US11236085B2, “PD-1/PD-L1 inhibitors” (Gilead Sciences, Inc., priority 2018, dated 2022):

Tests used:
PD-1/PD-L1 [1] = molecular target: T1, PD-1/PD-L1 (Homo sapiens, UniProt Q9NZQ7); assay: PD-1/PD-L1 NFAT reporter assay (co-culture of aAPC-PD-L1 CHO cells and Jurkat cells overexpressing PD-1, NFAT luciferase); format: cell-based; parameters: expressed in transfected cells; host or cells: CHO cells (aAPC-PD-L1) co-cultured with Jurkat cells overexpressing PD-1; details: co-culture incubated for 6 hrs at 37° C.; luciferase under NFAT control
Description: PD-1/PD-L1 NFAT Reporter Assay
Compounds were tested in a functional co-culture reporter assay in which TCR-mediated NFAT activity is inhibited by the engagement of PD-1 with PD-L1. […] CHO cells expressing surface-bound anti-CD3 antibodies and PD-L1 (artificial antigen presenting cells, aAPC-PD-L1) were first seeded overnight. Jurkat cells overexpressing PD-1 and expressing a luciferase construct under NFAT control are diluted in RPMI assay medium (RPMI 1640 with 2% FBS), mixed with compounds, and immediately seeded on the monolayer of aAPC-PD-L1. The co-culture is then incubated for 6 hrs at 37° C. Luciferase activity is assessed by adding the ONE-Glo reagent and measuring luminescence with a plate reader. EC50 values are calculated from the fit of the dose-response curves to a four-parameter equation (Table 4).
Target sequence in this assay (Q9NZQ7 19-290): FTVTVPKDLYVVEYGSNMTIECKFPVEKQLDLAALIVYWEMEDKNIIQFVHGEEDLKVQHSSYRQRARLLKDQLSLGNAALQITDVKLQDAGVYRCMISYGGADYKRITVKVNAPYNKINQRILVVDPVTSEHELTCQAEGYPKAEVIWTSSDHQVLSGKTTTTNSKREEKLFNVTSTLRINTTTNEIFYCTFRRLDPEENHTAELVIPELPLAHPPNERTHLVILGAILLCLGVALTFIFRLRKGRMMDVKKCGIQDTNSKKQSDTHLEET

PD-1/PD-L1 [2] = molecular target: T1, PD-1/PD-L1; assay: PD-1/PD-L1 biochemical protein-protein interaction assay (ALPHA); format: binding; details: 0.3 nM His tagged PD-L1, 2.5 nM biotinylated Fc-PD-1; 60 minutes at 25° C.; read-out: IC50 PD-L1-PD1
Description: PD-1/PD-L1 & CTLA/CD80 Biochemical Protein-Protein Interaction Assay
Compounds were tested in biochemical protein-protein interaction assays to determine if they can specifically block the interaction between the extracellular domains of PD-1/PD-L1 or CTLA/CD80. Binding of the protein pairs is measured using a bead based Amplified Luminescent Proximity Homogeneous Assay (ALPHA) platform. Binding of each protein pair results in proximity of the donor and acceptor beads which leads to an increase in ALPHA signal. Disruption of the protein-protein interaction with a test compound results in a decrease in ALPHA signal. Assays are performed in 25 mM Hepes (pH 7.4), 150 mM NaCl, 3.4 mM EDTA, 0.005% Tween 20, and 0.01% BSA. Final protein concentration in the assays were 0.3 nM (His tagged PD-L1), 2.5 nM (biotinylated Fc-PD-1), 1 nM (His tagged CTLA4) and 1 nM (biotinylated CD80). After an assay reaction time of 60 minutes at 25° C., binding was measured with addition of 20 μg/mL ALPHA assay acceptor beads (anti-His coated) and 20 µg/mL ALPHA assay donor beads (streptavidin coated). IC50 values were calculated from the fit of the dose-response curves to a four-parameter equation. Representative data are shown below in Table 3.
Target sequence in this assay (Q9NZQ7 19-238 limits assumed): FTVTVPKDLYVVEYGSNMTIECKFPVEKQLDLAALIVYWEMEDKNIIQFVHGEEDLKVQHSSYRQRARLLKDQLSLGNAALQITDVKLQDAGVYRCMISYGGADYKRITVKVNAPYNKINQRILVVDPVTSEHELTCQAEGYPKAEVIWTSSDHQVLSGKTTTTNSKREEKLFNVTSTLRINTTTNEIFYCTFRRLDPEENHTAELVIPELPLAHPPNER

PD-L1 = molecular target: T2, PD-L1 (Homo sapiens, UniProt Q9NZQ7); assay: PD-L1/PD-L1 dimerization biochemical protein-protein interaction assay (ALPHA); details: 0.5 nM His tagged PD-L1 and 0.5 nM FLAG tagged PD-L1; compound induced dimerization; read-out: AC50 PDL1 Dimer 1 nM
T2 construct: determine if they can specifically dimerize the extracellular domains of PD-L1
Description: PD-L1/PD-L1 Dimerization Biochemical Protein-Protein Interaction Assay
Compounds were tested in biochemical protein-protein interaction assays to determine if they can specifically dimerize the extracellular domains of PD-L1. Dimerization of the proteins (His-tagged PD-L1 and FLAG-tagged PD-L1) is measured using a bead based Amplified Luminescent Proximity Homogeneous Assay (ALPHA) platform. […] Assays are performed in 25 mM Hepes (pH 7.4), 150 mM NaCl, 3.4 mM EDTA, 0.005% Tween 20, and 0.01% BSA. Final protein concentration in the assays were 0.5 nM (His tagged PD-L1) and 0.5 nM (FLAG tagged PD-L1). After an assay reaction time of 2 hours at 25° C., 20 μg/mL (final assay concentration) ALPHA assay acceptor beads (anti-His coated) were added and incubated for 60 minutes at 25° C. Binding was measured following a final 60 minute incubation with 40 μg/mL (final assay concentration) ALPHA assay donor beads (anti-FLAG coated). AC50 values were calculated from the fit of the dose-response curves to a four-parameter equation (Table 4).

T2 sequence (Q9NZQ7 19-238 limits assumed): as above
T2 sequence (Q9NZQ7 19-238 limits assumed): as above

| Structure (SMILES) | EC50 (PD-1/PD-L1 [1]) [nM] | IC50 (PD-1/PD-L1 [2]) [nM] | AC50 (PD-L1) [nM] |
| --- | --- | --- | --- |
| COc1nc(O[C@H]2CCc3c(-c4cccc(-c5ccc6c(n5)CCNC6)c4Cl)cccc32)c(C(F)(F)F)cc1CN1CC[C@@H](C(=O)O)C1 [Compound 1, (R)-1-((6-(((S)-4-(2-chloro-3-(5,6,7,8-tetrahydro-1,6-naphthyridin-2-yl)phenyl)-2,3-dihydro-1H-inden-1-yl)oxy)-2-methoxy-5-(trifluoromethyl)pyridin-3-yl)methyl)pyrrolidine-3-carboxylic acid] | 1260 | 0.064 | 135 |
| COc1nc(O[C@H]2CCc3c(-c4cccc(-c5nc6c(s5)CCNC6)c4Cl)cccc32)c(C(F)(F)F)cc1CN1CC[C@@H](C(=O)O)C1 [Compound 2, (R)-1-((6-(((S)-4-(2-chloro-3-(4,5,6,7-tetrahydrothiazolo[4,5-c]pyridin-2-yl)phenyl)-2,3-dihydro-1H-inden-1-yl)oxy)-2-methoxy-5-(trifluoromethyl)pyridin-3-yl)methyl)pyrrolidine-3-carboxylic acid] | 3250 | 0.064 | 23 |
| Cc1c(COc2cc(OCc3cncc(C#N)c3)c(CN[C@@](C)(CO)C(=O)O)cc2Cl)cccc1-c1cccc(-c2ccc3c(c2)CNCC3O)c1C (stereo partly drawn) [Compound 3] | 123 | 0.064 | 76.9 |
| Cc1c(COc2cc(OCc3cncc(C#N)c3)c(CN[C@@](C)(CO)C(=O)O)cc2Cl)cccc1-c1cccc(-c2ccc3c(c2)NCCNC3)c1C [Compound 4] | 90 | 0.064 | 86.5 |
| Cc1c(COc2cc(OCc3cncc(C#N)c3)c(CN[C@@](C)(CO)C(=O)O)cc2Cl)cccc1-c1cccc(-c2ccc3c(c2)CNCC3)c1C [Compound 5] | 134 | 0.136 | 57 |
| COc1nc(-c2cccc(-c3cccc(-c4ccc5c(c4)OCCNC5)c3Cl)c2Cl)ccc1CNC[C@@H](O)CC(=O)O [Compound 6] | 170 | 0.427 | 301 |
| Cc1c(COc2cc(OCc3cc(Cl)cc(C#N)c3)c(CN[C@@](C)(CO)C(=O)O)cc2Cl)cccc1-c1cccc(-c2ccc3c(c2)CNCC3)c1C [Compound 7] | 142 | 0.955 | 75 |
| Cc1c(COc2cc(OCc3cc(C#N)cc(C#N)c3)c(CN[C@@](C)(CO)C(=O)O)cc2Cl)cccc1-c1cccc(-c2ccc3c(c2)CNCC3)c1C [Compound 8] | 90 | 0.293 | 42.9 |
| Cc1c(COc2cc(OCCCC#N)c(CN[C@@](C)(CO)C(=O)O)cc2Cl)cccc1-c1cccc(-c2ccc3c(c2)CNCC3)c1C [Compound 9] | 173 | 0.126 | 63.8 |
| Cc1c(COc2cc(OCc3cncc(C#N)c3)c(CN[C@@](C)(CO)C(=O)O)cc2Cl)cccc1-c1cccc(-c2ccc3c(c2)NC(=O)CNC3)c1C [Compound 10] | 103 | 0.187 | 249 |
| Cc1c(COc2cc(OCc3cncc(C#N)c3)c(CNC[C@@H](O)CC(=O)O)cc2Cl)cccc1-c1cccc(-c2ccc3c(c2)NC(=O)CNC3)c1C [Compound 11] | 178 | 0.686 | 599 |
| CNC(=O)NC1CNCc2cc(-c3cccc(-c4cccc(-c5ccc(CNC[C@@H]6CCC(=O)N6)c(OC)n5)c4Cl)c3Cl)ccc21 (stereo partly drawn) [Compound 12] | 165 | 0.17 | 55.3 |
| Cc1c(COc2cc(OCc3cncc(C#N)c3)c(CNC[C@@H](O)CC(=O)O)cc2Cl)cccc1-c1cccc(-c2ccc3c(c2)CNCC3NC(=O)NC2CC2)c1C (stereo partly drawn) [Compound 13] | 90 | 0.147 | 26.9 |
| Cc1c(COc2cc(OCc3cncc(C#N)c3)c(CN[C@@](C)(CO)C(=O)O)cc2Cl)cccc1-c1cccc(-c2ccc3c(c2)CNCC3NC(=O)NC2CC2)c1C (stereo partly drawn) [Compound 14] | 69 | 0.064 | 10.7 |
| CNC(=O)N[C@@H]1CNCc2cc(-c3cccc(-c4cccc(COc5cc(OCc6cncc(C#N)c6)c(CN[C@@](C)(CO)C(=O)O)cc5Cl)c4C)c3C)ccc21 [Compound 15] | 59 | 0.064 | 7.47 |
| Cc1c(COc2cc(OCc3cncc(C#N)c3)c(CN[C@@](C)(CO)C(=O)O)cc2Cl)cccc1-c1cccc(-c2ccc3c(c2)CNCC3NC(=O)NCC#N)c1C (stereo partly drawn) [Compound 16] | 102 | 0.09 | 30.9 |
| Cc1c(COc2cc(OCc3cncc(C#N)c3)c(CNC[C@@H](O)CC(=O)O)cc2Cl)cccc1-c1cccc(-c2ccc3c(c2)CNCC3NC(=O)NCC#N)c1C (stereo partly drawn) [Compound 17] | 128 | 0.174 | 31.6 |
| Cc1c(COc2cc(OCc3cncc(C#N)c3)c(CN[C@@](C)(CO)C(=O)O)cc2Cl)cccc1-c1cccc(-c2ccc3c(c2)CNCC3N)c1C (stereo partly drawn) [Compound 18] | 73 | 0.158 | 54.9 |
| CNC(=O)NC1CNCc2cc(-c3cccc(-c4cccc(COc5cc(OCc6cncc(C#N)c6)c(CNC[C@@H](O)CC(=O)O)cc5Cl)c4C)c3C)ccc21 (stereo partly drawn) [Compound 20] | 95 | 0.064 | 20.8 |
| C[C@](CO)(NCc1cc(Br)c(OCc2cccc(-c3cccc(-c4ccc5c(c4)CNCC5)c3Cl)c2Cl)nc1OCc1cncc(C#N)c1)C(=O)O [Compound 21] | 166 | 0.23 | 28.3 |
| C[C@@](CO)(NCc1cc(Br)c(OCc2cccc(-c3cccc(-c4ccc5c(c4)CNCC5)c3Cl)c2Cl)nc1OCc1cncc(C#N)c1)C(=O)O [Compound 22] | 87 | 0.151 | 37.7 |
| COc1nc(-c2cccc(-c3cccc(-c4cc5c(cn4)CNC5)c3Cl)c2Cl)ccc1CNC[C@@H]1CCC(=O)N1 [Compound 23] | 202 | 0.318 | 272 |
| Cc1c(COc2cc(OCc3cncc(C#N)c3)c(CN[C@@](C)(CO)C(=O)O)cc2Cl)cccc1-c1cccc(-c2ccc3c(c2)C2CCC(C3)N2)c1C (stereo partly drawn) [Compound 24] | 184 | 0.086 | 41.3 |
| Cc1c(COc2nc(OCc3cncc(C#N)c3)c(CN[C@@](C)(CO)C(=O)O)cc2Cl)cccc1-c1cccc(-c2ccc3c(c2)CNC(COC(=O)NCCO)C3)c1C (stereo partly drawn) [Compound 25] | 108 | 0.064 | 53.5 |
| CC(=O)NCC1Cc2ccc(-c3cccc(-c4cccc(COc5cc(OCc6cncc(C#N)c6)c(CN[C@@](C)(CO)C(=O)O)cc5Cl)c4C)c3C)cc2CN1 (stereo partly drawn) [Compound 26] | 174 | 0.064 | 48.9 |
